Where a SMILES comes first, the peptide text is derived from it. Where no end group is shown, it is not given here. [ ]: non-standard residue; d: D form. βAla = NCCC(=O)O

We go through six compounds from publication PMC9299640, “Incorporation of β‐Alanine in Cu(II) ATCUN Peptide Complexes Increases ROS Levels, DNA Cleavage and Antiproliferative Activity” (Chemistry (Weinheim an Der Bergstrasse, Germany), 2021).

Data set [1] is described as follows: Potentiometric titration of peptides with CuCl2: Cu(II) binding constants and competitivity index at pH 7.4. It is filed as physicochemical. Particulars: 25 °C, I=0.1 (KNO3); for CI7.4 (competitivity index, log K CuZ): calculated at pH 7.4 for 1 mM Cu(II), peptide L and virtual competitive ligand Z from potentiometric stability constants; for log *K4N (protonation-corrected stability constant of Cu(II) 4N complex): log β{CuHn-4L} – log β{HnL}; for log β CuH-2L / log β CuH-3L / log β CuL / log β CuH-1L / log β CuHL: 1 mM peptide, Cu:peptide 1:1, 1:2, 1:3. As to the method:
(§1) Key factors for the investigation of the biological activity of metal complexes are the complex stability and the detection of the active species at a physiological pH value of 7.4.[27] Thus, potentiometric titration experiments of peptides a–g (b) alone and in the presence of CuCl2 (logarithmic protonation (log β) and protonation‐corrected Cu(II) binding constants (log *K)) and pH‐metric UV/VIS and CD spectroscopic measurements of 1–7 (2 [26]) were carried out (S‐5).
(§2) S-5 Protonation and complex stability constants
(§3) All bioanalytical experiments (DNA cleavage, DNA binding and ROS detection studies) and cell studies (cytotoxicity and cellular uptake) were carried out at pH 7.4. To characterize the speciation of the ATCUN metallopeptides at this pH, potentiometric titrations in combination with UV/VIS and CD spectroscopy were carried out for 1 and 3-7.
(§4) S-5.1 Potentiometry, UV/VIS and circular dichroism (CD) spectroscopy […]
(§5) Potentiometric titrations were performed on a 907 Titrando Automatic Titrator (Metrohm) using a Biotrode combined glass electrode (Metrohm), calibrated daily by nitric acid titrations with the use of standardized 100 mM NaOH (carbon dioxide-free) as a […]
Stock solution preparation:
Stock solutions of peptides a and c–g for UV/VIS and CD experiments were prepared by dissolving given amounts of peptides in carbon dioxide-free Milli-Q® water.
Samples (1.5 mL volume, 1 mM peptide) were prepared in 4 mM HNO3/96 mM KNO3 solution. To calculate ligand (peptide) concentrations and their protonation constants, at least three consecutive potentiometric titrations were performed.
Three samples (1.5 mL) of 1 mM peptide and CuCl2 with Cu : peptide ratios of 1:1, 1:2 and 1:3 were prepared in 4 mM HNO3/96 mM KNO3. Each sample was titrated separately using a standardized 100 mM NaOH solution. The pH range for all potentiometric […]
All ligand and complex titrations were performed under argon at 25 °C. The data was analyzed using the SUPERQUAD and HYPERQUAD programs.
For the determination of Cu(II) stability constants, peptides a and c–g UV/VIS spectra were recorded in a range of 250–900 nm with a scan resolution of 1 nm, and a scan speed of 0.5 s/nm on a Lambda 950 UV/VIS/NIR spectrophotometer (PerkinElmer). The samples of 1 mM peptide/0.8 mM CuCl2 were prepared in 1 cm path length quartz cuvettes (Hellma) and titrated with small amounts of concentrated NaOH solution. Usually the pH-metric titration spanned from pH 2.9 to pH 12.5. […]
(§6) Table S5. Logarithmic protonation and Cu(II) binding constants (log β and pK) of peptides a-g (b not measured), determined by potentiometry at 25 °C and I=0.1 (KNO3), and competitivity index (CI) values calculated at pH 7.4 for 1 mM Cu(II) and peptides based on respective stability constants.
(§7) Statistical errors on the last digits of log β values, provided by HYPERQUAD, are given in parentheses. […]
(§8) log β pK log β pK log β pK log β pK log β pK log β pK
CuH3L - - - - - - - - - -
CI: Competitivity index calculated for pH 7.4 and peptide L, Cu(II) and Z concentrations of 0.001 M. CI is log KCuZ fulfilling the condition Σijk([CuiHjLk]=[CuZ].3 log *K4N is a protonation-corrected stability constant allowing to compare peptides with different protonation states forming the same type of complexes In general log*KxN, where x stand for number of coordinated nitrogens can be described by log *KxN = log β{CuHn-xL} – log β{HnL} HnL stands for the protonation of coordinating histidine (in position 3 from N-terminus in case of ATCUN motifs) […]
Peptides can be compared easily between each other using both protonation-corrected stability constant (log *K4N) and Competitivity Index at pH 7.4 (CI7.4):
(§9) For log *K4N, the higher the number (less negative value) the higher stability of Cu(II) complexes (only relative meaning – no interpretation of concentrations of species possible).
For CI7.4, the higher the number the higher the stability. […]

The nature of data set [2]: Potentiometric titration of peptides: protonation constants. Particulars: protonation constant, potentiometry, 1 mM peptide, error on last digit in parentheses; for log β H2L / log β HL / log β H3L: 25 °C, I=0.1 (KNO3). It counts as physicochemical. The procedure:
as §1, §2, §3, §4, §5
Stock solution preparation: […]
Samples (1.5 mL volume, 1 mM peptide) were prepared in 4 mM HNO3/96 mM KNO3 solution. To calculate ligand (peptide) concentrations and their protonation constants, at least three consecutive potentiometric titrations were performed. […]
The pH range for all potentiometric
All ligand and complex titrations were performed under argon at 25 °C. The data was analyzed using the SUPERQUAD and HYPERQUAD programs. […]
as §6, §7, §8
CuH3L - - - - - - - - - - […]
as §9
For CI7.4, the higher the number the higher the stability. CI is the affinity constant for the imaginary CuZ complex which is equivalent in strength to the probed complex/set of complexes. The advantage of CI is that its unit is M-1, and can be compared with log K values for real complexes.

The mark [3] stands for this setting: potentiometry, error on last digit in parentheses.

Take `NCC(=O)NCCC(=O)N[C@@H](Cc1c[nH]cn1)C(=O)NCC(=O)N[C@@H](CO)C(=O)N[C@@H](CO)C(N)=O` [Peptide c] (H-G[βAla]HGSS-NH2): in data set [1] (Cu(II) species, potentiometry), the “pK CuH-2L” value was 5.65 and the “pK CuH-3L” value is 10.4. Besides, the “CI7.4 (competitivity index, log K CuZ)” value in data set [1] was 9.915. Moreover, in data set [1] (potentiometry), the “log *K4N (protonation-corrected stability constant of Cu(II) 4N complex)” value (from here on “log *K4N”) is given as -18.426. In data set [1] (setting [3]), the “log β CuH-2L” value is recorded as -4.160(5), the “log β CuH-3L” value was -14.560(8) and the “log β CuL” value is on record as 7.137(5). In addition, in data set [2], the “log β H2L” value was 14.266(3) and the “log β HL” value is recorded as 8.001(2).
For the compound `NCCCC[C@H](NC(=O)[C@H](Cc1c[nH]cn1)NC(=O)CCNC(=O)[C@@H](N)CCCCN)C(=O)N[C@@H](CO)C(=O)N[C@@H](CO)C(N)=O` [d] (H-K[βAla]HKSS-NH2), in data set [1] (Cu(II) species, potentiometry), the “pK CuH-1L” value was found to be 10.00, the “pK CuH-2L” value stood at 10.41 and the “pK CuL” value came to 5.13. Moreover, the “CI7.4 (competitivity index, log K CuZ)” value in data set [1] was 10.31. For the same compound, the “log *K4N” value in data set [1] (potentiometry) is listed as -17.537. Besides, in data set [1] (setting [3]), the “log β CuH-1L” value is 6.337(8), the “log β CuH-2L” value was -4.068(6) and the “log β CuL” value is 16.338(4). Further, in data set [1] (potentiometry, 4 mM HNO3/96 mM KNO3, 1 mM peptide, Cu:peptide 1:1, 1:2, 1:3, pH 2.7-11.6, argon, error on last digit in parentheses), the “log β CuH2L” value is 26.604(9). Besides, the “log β H4L” value in data set [2] (4 mM HNO3/96 mM KNO3, 25 °C, I=0.1, argon, at least three titrations) is listed as 33.875(4). In data set [2], the “log β H2L” value is reported as 20.563(2), the “log β H3L” value is on record as 27.860(3) and the “log β HL” value was 10.656(3).
Regarding `NC(=O)[C@H](CO)NC(=O)[C@H](CO)NC(=O)[C@H](Cc1c[nH]c2ccccc12)NC(=O)[C@H](Cc1c[nH]cn1)NC(=O)CCNC(=O)[C@@H](N)Cc1c[nH]c2ccccc12` [e] (H-W[βAla]HWSS-NH2), in data set [1] (Cu(II) species, potentiometry), the “pK CuH-2L” value worked out at 4.92 and the “pK CuH-3L” value is listed as 11.58. In data set [1], the “CI7.4 (competitivity index, log K CuZ)” value is recorded as 11.28. For the same compound, the “log *K4N” value in data set [1] (potentiometry) is reported as -16.804. In addition, in data set [1] (setting [3]), the “log β CuH-2L” value is listed as -3.104(3), the “log β CuH-3L” value is recorded as -14.683(9) and the “log β CuL” value is listed as 6.743(7). In data set [2], the “log β H2L” value was 13.700(3) and the “log β HL” value is recorded as 7.584(3).
In the case of `NCCCC[C@H](N)C(=O)NCCC(=O)N[C@@H](Cc1c[nH]cn1)C(=O)N[C@@H](Cc1c[nH]c2ccccc12)C(=O)N[C@@H](CO)C(=O)N[C@@H](CO)C(N)=O` [f] (H-K[βAla]HWSS-NH2), in data set [1] (Cu(II) species, potentiometry), the “pK CuH-1L” value was 5.06, the “pK CuH-2L” value is 10.12 and the “pK CuH-3L” value is 11.17. Moreover, the “CI7.4 (competitivity index, log K CuZ)” value in data set [1] is 10.52. Moreover, in data set [1] (potentiometry), the “log *K4N” value is on record as -17.435. Besides, in data set [1] (setting [3]), the “log β CuH-1L” value was 6.280(3), the “log β CuH-2L” value was -3.840(7), the “log β CuH-3L” value is -15.007(8) and the “log β CuHL” value is recorded as 16.406(9). For the same compound, in data set [2], the “log β H2L” value is on record as 17.632(4), the “log β H3L” value is recorded as 23.715(5) and the “log β HL” value is recorded as 10.262(3).
As for `NCCCC[C@H](NC(=O)[C@H](Cc1c[nH]cn1)NC(=O)CCNC(=O)[C@@H](N)Cc1c[nH]c2ccccc12)C(=O)N[C@@H](CO)C(=O)N[C@@H](CO)C(N)=O` [g] (H-W[βAla]HKSS-NH2), in data set [1] (Cu(II) species, potentiometry), the “pK CuH-1L” value was 4.82 and the “pK CuH-2L” value is 10.10. Further, the “CI7.4 (competitivity index, log K CuZ)” value in data set [1] is recorded as 11.29. In addition, the “log *K4N” value in data set [1] (potentiometry) was -16.738. Also, in data set [1] (setting [3]), the “log β CuH-1L” value is recorded as 7.108(5), the “log β CuH-2L” value was -2.987(9) and the “log β CuHL” value is recorded as 16.75(1). In data set [2], the “log β H2L” value is on record as 17.755(5), the “log β H3L” value is on record as 23.846(5) and the “log β HL” value is reported as 10.255(3).
For GGHGSS-NH2 [a], in data set [1] (Cu(II) species, potentiometry), the “pK CuH-3L” value is on record as 11.79. The “CI7.4 (competitivity index, log K CuZ)” value in data set [1] is on record as 13.61. The “log *K4N” value in data set [1] (potentiometry) was -14.747. Also, in data set [1] (setting [3]), the “log β CuH-2L” value is listed as -0.587(5) and the “log β CuH-3L” value is listed as -12.38(2). Besides, in data set [2], the “log β H2L” value is given as 14.160(2) and the “log β HL” value was 7.853(1).
